In patent publication US20040116346A1, “Affinity small molecules for the EPO receptor” (priority 2002, published 2004):
Entries after “also recorded” stand apart in the source; their conditions may differ.

Legend:
[1] = test system: cortical neurons isolated from embryonic day 18 rats; test: glutamate-induced neuronal death in cultured cortical neurons; format: cell-based, rat; conditions: 24 hours pre-treatment, 300 uM glutamate for 24 hours
Procedure: Primary cultured cells were used as a model to evaluate the subject small molecule effect on CNS. Glutamate neurotoxicity can be most directly studied using neurons prepared from the brain at the late embryonic stage and subsequently cultured for maturation. To examine the effect of the subject small molecules (E5A24 and E5A29) on glutamate-induced neuronal death, cortical neurons isolated from embryonic day 18 rats, were cultured for 10 days. Subsequently, neurons were treated for 24 hours with or without the subject small molecules, and further exposed to 300 uM glutamate for 24 hours. After glutamate was washed out, the cells were cultured for another 24 hours. During the glutamate challenge and subsequent culture, the subject small molecules were absent. Finally, the cell viability was examined.

TF-1 and UT-7 cells = test: biological testing in cell lines (cell proliferation assay and cell signaling assay); format: cell-based
Excerpt: Compounds identified in the initial screen were further tested for their biological activity in two assays: a cell proliferation assay and a cell signaling assay in TF-1 and UT-7 cells. The hit rate in cell proliferation was 0.16%; hit rate in cell signaling was 0.25%.
At the end of the biological testing in cell lines TF-1 and UT-7, E4, E5, E5 analogs and E6 molecules were some of the compounds identified as showing the best activity.
Compounds identified in the initial screen were further tested for their biological activity in two assays: a cell proliferation assay and a cell signaling assay in TF-1 cells. The hit rate in cell proliferation was 0.16%; hit rate in cell signaling was 0.25%.
At the end of the biological testing in cell line, E4, E5, E5 analog, and E6 molecules were some of the compounds identified as showing the best activity.

[2] = test system: Mouse or human bone marrow cells; test: Formation of erythroid colonies (CFU-e, BFU-e) from bone marrow in methylcellulose; format: cell-based; conditions: mouse and human bone marrow
Procedure: Mouse or human bone marrow cells were stimulated in methylcellulose for 7 days (mouse) or 14 days (human) with non-peptide EPO-R modulators. Formation of erythroid colonies was observed. (See FIGS. 6 to 8)
(1) Dilute human bone marrow 1:1 with sterile PBS. (2) Slowly layer bone marrow into 50 ml tubes containing 20 ml of LSM Lymphocyte separation medium (ICN/Cappel—cat #50494). 50 ml bone marrow will yield 2 tubes. (3) Spin tubes at 2000 rpm for 30 minutes with brake off. (4) Slowly take out the middle layer using a 10 ml pipette and transfer into a new 50 ml tube. (5) Add PBS +0.5% BSA +5 mM EDTA to tube for washing. (6) Spin tube for 5 minutes at speed 4 with brake on. (7) Repeat wash step 2 more times. (8) After 3rd wash, resuspend pellet in SF Iscoves' MDM medium. (9) Count by diluting cells in 3% acetic acid. (10) Dilute cells to desired concentration (5×10^5 cells/ml) and seed onto methylcellulose.
(1) Tubes containing 3.0 ml of methylcellulose medium (Stemcell Technology, cat #H4230) supplemented with 50 ng/ml hSCF are prepared. (Alternatively the methylcellulose could be supplemented with 50 ng/ml hSCF, 20 ng/ml of hIL-3 and hIL-6). (2) Compounds or EPO of desired concentrations are added to the tubes. […] Colonies are scored on day twelve.
Bone marrow cells were isolated from mouse femurs. […] The colonies were scored on day seven. […]

[3] = test system: carboplatin-treated 8 week old C57BL mice; test: Carboplatin induced anemia model (hematocrit); format: in vivo, mouse
Procedure: Mice were treated with Carboplatin agent (available from Sigma, used regularly in chemotherapy) and a drop in hematocrit was induced. […] (FIGS. 9-11)
Determination of Effect of Non-peptide EPO-R Binding Small Molecule on Hematocrit in Carboplatin-Induced Anemia in 8 Week C57BI Male Mice
Preparation of injection solutions: Vehicle—Saline with 0.1 mg/mL BSA; Add 30 mg of BSA to 300 mL Saline; Vacuum filter under sterile conditions in laminar flow hood; Aliquot the saline (0.1 mg/mL BSA) solution into mini-sorp tubes. At least 41×7 mL aliquots should be prepared. Place caps on the tubes and store refrigerated at 4° C.;
Carboplatin—Dose of 120 mg/kg: Calculations for single injection given to 36 male mice (8 wks old˜25 g): […]×0.025 kg×36 mice=108 mg; Injections are delivered i.p. in a volume of 0.5 cc/mouse=0.5 cc/mouse×36 mice=18 cc; Carboplatin at 6 mg/mL for 36 mice: 108 mg/18 cc.; 120 mg/20 cc; On day of injection, add 120 mg carboplatin (Sigma #C2538) to 20 cc saline in a 100 cc beaker containing a stirring bar. Cover beaker with parafilm. Mix until the carboplatin has completely dissolved.
11 nmole/kg/mouse/day×0.025 kg×12 mice=3.3 nmoles/day; Injections are delivered i.p. in a volume of 0.5 cc/mouse/day=0.5 cc/mouse/day×12 mice=6 cc/day; non-peptide EPO-R binding small molecule for […]: 3.3 nmoles/6 cc each day: 3.85 nmole/7 cc each day; non-peptide EPO-R binding small molecule aliquot at 2 mM=2 nmole/uL; 3.85 nmole per day in 7 cc (0.55 nmole/mL); Therefore: 3.85 nmole divided by 2 nmole/uL stock=1.925 uL at 2 mM; Prepare in advance at least 10 aliquots of non-peptide EPO-R binding small molecule at 2 mM in small microfuge tubes, each with a volume of 2 uL. Freeze these aliquots; On each day of injections, add 1 thawed aliquot of the non-peptide EPO-R binding small molecule at 2 mM containing a 2 uL volume to a tube containing 7 cc of sterile saline (0.1 mg/mL BSA). […]

[4] = test system: Bcl-xL protein in UT-7 and TF-1 cells; test: up-regulation of Bcl-xL expression (immunoprecipitation, western blot); format: cell-based
Procedure: When the subject compounds were tested for anti-apoptotic effect was evaluated, these antibodies were used: Anti-Bcl-XL/s antibody (Santa Cruz Biotechnology, SC-1041), Anti-Bcl-XL antibody (Santa Cruz Biotechnology, SC8392)
A number of molecules of the subject invention were evaluated in in vitro systems that reflect the condition of cerebral ischemia and metabolic stress. Firstly, it is known that one of the mechanisms by which EPO prevents neuronal apoptosis is by up-regulating the expression levels of Bcl-x1 protein, which is a well-described anti-apoptotic protein. Thus, cells-lines that are known to be EPO responsive (UT-7 and TF-1, used in previous studies) were used as a cellular system to examine the small molecules' anti-apoptotic activity through EPO-R.
The evaluation was performed by starving the cells, stimulating the cells with compounds at appropriate concentrations (or no stimulation for control samples) and immunoprecipitating the cell lysates with antibody specific to both forms (short and long) of Bcl-xL protein. The amount of Bcl-xL (long protein form, known to have anti-apoptotic activity) protein was evaluated by western blot analysis.

[5] = test system: P-19 cells (a neural-like embryonal carcinoma cell line); test: anti-apoptotic effect in P-19 cells upon withdrawal of serum; format: cell-based; conditions: treated 24 hours prior to serum withdrawal; serum withdrawn for 48 hours
Procedure: Experiments were performed according to the described protocol. The anti-apoptotic effect of the subject small molecules was evaluated in P-19 cells (a neural-like embryonal carcinoma cell line) that undergo apoptosis upon withdrawal of serum. Briefly, cells were treated with small molecules for 24 hours prior to serum withdrawal. Serum was withdrawn for 48 hours in the presence or absence of a subject small molecule (EM5 and E5A24). At the end of that period, cell survival was evaluated. […] This Figure is representative of the experiment and of the subject small molecules. The experiments were performed according to literature procedures (Siren et. al., Proc. Nat. Acad. Sci. 98, 4044, 2001). Cell survival was determined according to the protocol described for cellular proliferation.

EPO-R modulating domain = molecular target: T1, EPO-R modulating domain (Homo sapiens, UniProt P19235); conditions: cited from earlier work
T1 sequence (P19235 25-508): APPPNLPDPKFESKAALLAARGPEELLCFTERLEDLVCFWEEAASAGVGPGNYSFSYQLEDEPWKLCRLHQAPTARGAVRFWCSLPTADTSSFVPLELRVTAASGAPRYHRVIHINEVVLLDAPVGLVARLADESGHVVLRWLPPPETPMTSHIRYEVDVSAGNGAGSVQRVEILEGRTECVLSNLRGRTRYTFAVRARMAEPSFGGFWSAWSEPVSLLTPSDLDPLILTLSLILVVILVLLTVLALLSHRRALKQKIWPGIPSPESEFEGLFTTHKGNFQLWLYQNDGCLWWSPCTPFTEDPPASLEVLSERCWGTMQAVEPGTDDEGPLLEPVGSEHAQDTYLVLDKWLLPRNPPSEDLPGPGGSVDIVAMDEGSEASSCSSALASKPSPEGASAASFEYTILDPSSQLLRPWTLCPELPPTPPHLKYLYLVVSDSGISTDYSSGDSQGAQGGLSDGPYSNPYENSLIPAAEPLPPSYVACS

In the case of `Cc1n[nH]c2c1C(c1ccco1)C1=C(CC(C)(C)CC1=O)N2` (stereo not drawn) [Compound E5A29], the “cell survival / glutamate induced neuronal death” value [1] is reported as “prevented glutamate induced neuronal death in a dose-responsive manner; also recorded: increased cell survival” and the “increase of cell survival after glutamate challenge” value [1] is reported as 60%.

In the case of `Cn1ncc(S(=O)Oc2ccccc2)c(Cl)c1=O` (stereo not drawn) [Compound E6], the “maximum activity compared to EPO natural hormone” value (TF-1 and UT-7 cells; cell line (TF-1 cells)) is reported as “maximum activity comparable to that of the maximum activity of EPO”, the “maximum activity compared to EPO natural hormone” value (TF-1 and UT-7 cells; cell lines TF-1 and UT-7, in the presence of low levels of EPO) is reported as “maximum activity comparable to that of the maximum activity of EPO” and the “CFU-e formation compared with EPO” value [2] is reported as “stimulate CFU-e formation to the same extent as EPO”. For the same compound, the “cooperative effect with EPO on hematocrit levels” value ([3]; compound given i.p.) was “cooperative effect” and the “hematocrit levels in animals treated with carboplatin” value ([3]; mouse, in vivo) was “restore hematocrit levels”.

With `Cc1cc(NCC2CC2)n2nc(Nc3cc(Cl)ccc3C)nc2n1` [EM5] the Bcl-xL expression ([4]; TF-1 cells) was “up-regulation of Bcl-xL expression”, the Bcl-xL expression ([4]; UT-7 cells) was “up-regulation of Bcl-xL expression” and the “up-regulation of Bcl-xL protein” value ([4]; both cell lines (UT-7 and TF-1)) was “induced up-regulation of Bcl-xL protein in a dose-responsive manner”. The “cell survival / viability after withdrawal of serum” value [5] was “protect cells from apoptosis; also recorded: increased cell viability”.

In the case of “QRVEILEGRTECVLSNLRGRTRY (listed as Homo sapiens) [SEQ ID NO:1]”, the “modulation of the activity of the EPO-R” value (EPO-R modulating domain) is given as “modulation of the activity of the EPO-R in the presence or absence of the ligand”.
